Here are results for 15 molecules from PubChem BioAssay (NCI).

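Five compound concentrations were applied to cells in 96-well plates for 48 hours; endpoints were derived by simple linear interpolation of the resulting dose-response curve. At the GI50, growth is halved. TGI: total growth inhibition.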 A value given as a limit tells only on which side of the number the result lay.

Test systems include UACC-257 melanoma; NCI-H226 lung; SK-MEL-28 melanoma; SNB-19 CNS; OVCAR-5 ovarian; MDA-N; HL-60(TB) leukemia; ACHN renal; MDA-MB-231 breast; UACC-62 melanoma.
Common to all, as to experiment: growth of human tumour cells (NCI), 48 h

Turning to `NC1CCCCC1NCCNC1CCCCC1N` (configuration not stated), the TGI in the assay on UACC-257 melanoma is > 100 µM; in the assay on NCI-H226 lung, > 100 µM; with SK-MEL-28 melanoma, > 100 µM; with SNB-19 CNS it was > 100 µM; in the assay on OVCAR-5 ovarian, 56.6 µM; in the assay with MDA-N, > 100 µM. In addition, the TGI in the assay with HL-60(TB) leukemia, in the assay with ACHN renal, in the assay with MDA-MB-231 breast and with UACC-62 melanoma was > 100 µM throughout.

For `C/C(=N\Nc1nc2ccccc2[nH]1)c1ncccn1`, the TGI in the assay with UACC-257 melanoma was > 35.2 µM; in the assay with SNB-19 CNS it was > 100 µM; in the assay with OVCAR-5 ovarian, > 100 µM; in the assay on MDA-N, > 100 µM; in the assay on HL-60(TB) leukemia, 0.0343 µM; with ACHN renal, 0.201 µM. For the same molecule, the TGI was > 29.2 µM in the assay on MDA-MB-231 breast and 2.88 µM with UACC-62 melanoma.

As for `CC(c1ccccc1)n1cncc1C(=O)NN1CCN(C)CC1` (configuration not stated), the TGI with UACC-257 melanoma, in the assay on NCI-H226 lung, in the assay with SK-MEL-28 melanoma, in the assay with SNB-19 CNS, in the assay with OVCAR-5 ovarian and in the assay with MDA-N was > 10 µM throughout. Besides, the TGI in the assay with HL-60(TB) leukemia, in the assay on ACHN renal, in the assay with MDA-MB-231 breast and in the assay with UACC-62 melanoma was > 10 µM each time.

`CCOC(=O)CCc1cn2cc(Br)nc(OC)c2n1`: the TGI was > 100 µM in the assay with UACC-257 melanoma; > 100 µM in the assay with NCI-H226 lung; > 100 µM with SK-MEL-28 melanoma; > 100 µM in the assay on SNB-19 CNS; 12.6 µM in the assay on MDA-N; > 100 µM in the assay with HL-60(TB) leukemia. The TGI with MDA-MB-231 breast and with UACC-62 melanoma was > 100 µM each time.

As for `Cc1nc(C)c(N2CCN(CN)CC2)c(=O)[nH]1`, the TGI with UACC-257 melanoma, with NCI-H226 lung, with SK-MEL-28 melanoma, with SNB-19 CNS, in the assay on MDA-N and in the assay with HL-60(TB) leukemia was > 100 µM in each case. Further, the TGI with ACHN renal, in the assay on MDA-MB-231 breast and in the assay with UACC-62 melanoma was > 100 µM throughout.

For the molecule `O=c1c2ccccc2nc(N/N=C/c2ccc([N+](=O)[O-])cc2)n1-c1ccccc1`, the TGI was > 100 µM in the assay with UACC-257 melanoma; > 100 µM with NCI-H226 lung; 30.1 µM in the assay on SK-MEL-28 melanoma; > 100 µM with SNB-19 CNS; > 100 µM in the assay on OVCAR-5 ovarian; > 100 µM in the assay on MDA-N. Also, the TGI in the assay with HL-60(TB) leukemia was > 100 µM; in the assay on ACHN renal it was 62.9 µM; in the assay with MDA-MB-231 breast it was > 100 µM; with UACC-62 melanoma it was > 100 µM.

Turning to `c1cc2cc3c4c5c(cc6ccc7cc8cc9c%10c8c8c7c6c5c8c5c%10c(c1C9N1CCOCCOCCOCCOCCOCC1)c2c45)C3` (configuration not stated), the TGI with UACC-257 melanoma, with NCI-H226 lung, with SK-MEL-28 melanoma, with SNB-19 CNS, in the assay with OVCAR-5 ovarian and in the assay on MDA-N was > 100 µM each time. Besides, the TGI with HL-60(TB) leukemia, in the assay with ACHN renal, in the assay with MDA-MB-231 breast and with UACC-62 melanoma was > 100 µM throughout.

As to `COc1cc2c3c(n(C)c(=O)c2cc1OC)-c1cc2c(cc1/C3=C\CCCCCBr)OCO2`, the TGI with UACC-257 melanoma was > 100 µM; in the assay with SK-MEL-28 melanoma it was 3.24 µM; with SNB-19 CNS, > 100 µM; with OVCAR-5 ovarian, > 100 µM; in the assay with MDA-N, > 100 µM; in the assay with HL-60(TB) leukemia it was 20.3 µM. The TGI was 41.7 µM in the assay with ACHN renal, > 100 µM in the assay with MDA-MB-231 breast and 29 µM with UACC-62 melanoma. The GI50 in the assay with UACC-62 melanoma is 3.87 µM.

Take `O=Nc1c(-c2c(O)[nH]c3ccc(I)cc23)[nH]c2ccccc12`: the TGI was > 100 µM in the assay on UACC-257 melanoma; > 100 µM in the assay on SK-MEL-28 melanoma; > 62.1 µM in the assay with SNB-19 CNS; > 27.1 µM in the assay with OVCAR-5 ovarian; 47.2 µM in the assay with MDA-N; 6.96 µM in the assay on HL-60(TB) leukemia. Moreover, the TGI with ACHN renal is > 21.4 µM; in the assay with MDA-MB-231 breast, 9.77 µM; with UACC-62 melanoma, 4.45 µM.

For the molecule `COc1ccc(/C=c2\[nH]c3nc(=O)c(N4CCCCC4)c(N)n3c2=O)cc1`, the TGI in the assay on UACC-257 melanoma, in the assay on NCI-H226 lung, in the assay with SK-MEL-28 melanoma, in the assay on SNB-19 CNS, in the assay on OVCAR-5 ovarian and in the assay with MDA-N was > 100 µM in each case. Besides, the TGI with HL-60(TB) leukemia, in the assay on ACHN renal and in the assay on MDA-MB-231 breast was > 100 µM each time.

For `Oc1ccc(Cl)cc1-c1cc(-c2ccccc2)nc(=S)[nH]1`, the TGI with UACC-257 melanoma, with NCI-H226 lung, in the assay with SK-MEL-28 melanoma, in the assay with SNB-19 CNS, in the assay on OVCAR-5 ovarian and with MDA-N was > 100 µM throughout. The TGI was > 100 µM in the assay on HL-60(TB) leukemia, > 100 µM with ACHN renal and 85.8 µM with MDA-MB-231 breast.

In the case of `O=C(O)CSC1=NNC2(C(=O)N1)c1ccccc1-c1ccccc12`, the TGI in the assay on UACC-257 melanoma, in the assay with NCI-H226 lung, with SK-MEL-28 melanoma, with SNB-19 CNS, with MDA-N and in the assay with HL-60(TB) leukemia was > 10 µM throughout. The TGI with ACHN renal, in the assay with MDA-MB-231 breast and in the assay with UACC-62 melanoma was > 10 µM in each case.

In the case of `O=C1CCCCC/C1=C\c1cccc(F)c1`, the TGI in the assay on UACC-257 melanoma, with SK-MEL-28 melanoma, in the assay with SNB-19 CNS, with OVCAR-5 ovarian, with MDA-N and with HL-60(TB) leukemia was > 100 µM throughout. The TGI with ACHN renal, in the assay with MDA-MB-231 breast and in the assay with UACC-62 melanoma was > 100 µM throughout.

For `[N-]=[N+]=Nc1nc2ccccc2c(N=[N+]=[N-])c1Cl`, the TGI with UACC-257 melanoma, in the assay with SK-MEL-28 melanoma, in the assay with SNB-19 CNS, with OVCAR-5 ovarian, with MDA-N and in the assay with HL-60(TB) leukemia was > 100 µM in each case. Also, the TGI with ACHN renal, in the assay with MDA-MB-231 breast and in the assay on UACC-62 melanoma was > 100 µM throughout.

For `COC(=O)c1c2c(cc3c1CC1(Cc4cc5c(c(C)c4C1)CCC5)C3)CCC2` (configuration not stated), the TGI in the assay on UACC-257 melanoma, with SK-MEL-28 melanoma, with SNB-19 CNS, in the assay on OVCAR-5 ovarian, in the assay with MDA-N and in the assay on HL-60(TB) leukemia was > 100 µM throughout. Also, the TGI in the assay with ACHN renal and in the assay on MDA-MB-231 breast was > 100 µM each time.
